Results from patent US12071424B2, “IRE1 small molecule inhibitors” (Cornell University, priority 2017, dated 2024).

Key:
IRE1a [1] = target: T1, IRE1a (Homo sapiens, UniProt O75460); assay: In vitro FRET assay (IRE1a cleavage of XBP1 RNA probe); assay type: biochemical; settings: 2 nM SignalChem IRE1a, tested as Formic Acid Salt (37: HCl Salt)
T1 construct: purchased SignalChem
Method in brief: Human

IRE1a [2] = assay: IRE1a Endoribonuclease Nanoluciferase Assay (XBP1 luciferase reporter in 293T cells); assay type: cell-based, human; settings: ER stressor, tested as Formic Acid Salt (37: HCl Salt)
Method in brief: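 293T cells transiently transfected with a PGK-Luc2-P2A-XBP1u-Nanoluciferase-Pest reporter, replated after 6 h, then treated next day with ER stressors ± inhibitors. After lysis, firefly luminescence then nanoluciferase luminescence read sequentially (1000 ms integration each).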

T1 sequence (O75460 19-977): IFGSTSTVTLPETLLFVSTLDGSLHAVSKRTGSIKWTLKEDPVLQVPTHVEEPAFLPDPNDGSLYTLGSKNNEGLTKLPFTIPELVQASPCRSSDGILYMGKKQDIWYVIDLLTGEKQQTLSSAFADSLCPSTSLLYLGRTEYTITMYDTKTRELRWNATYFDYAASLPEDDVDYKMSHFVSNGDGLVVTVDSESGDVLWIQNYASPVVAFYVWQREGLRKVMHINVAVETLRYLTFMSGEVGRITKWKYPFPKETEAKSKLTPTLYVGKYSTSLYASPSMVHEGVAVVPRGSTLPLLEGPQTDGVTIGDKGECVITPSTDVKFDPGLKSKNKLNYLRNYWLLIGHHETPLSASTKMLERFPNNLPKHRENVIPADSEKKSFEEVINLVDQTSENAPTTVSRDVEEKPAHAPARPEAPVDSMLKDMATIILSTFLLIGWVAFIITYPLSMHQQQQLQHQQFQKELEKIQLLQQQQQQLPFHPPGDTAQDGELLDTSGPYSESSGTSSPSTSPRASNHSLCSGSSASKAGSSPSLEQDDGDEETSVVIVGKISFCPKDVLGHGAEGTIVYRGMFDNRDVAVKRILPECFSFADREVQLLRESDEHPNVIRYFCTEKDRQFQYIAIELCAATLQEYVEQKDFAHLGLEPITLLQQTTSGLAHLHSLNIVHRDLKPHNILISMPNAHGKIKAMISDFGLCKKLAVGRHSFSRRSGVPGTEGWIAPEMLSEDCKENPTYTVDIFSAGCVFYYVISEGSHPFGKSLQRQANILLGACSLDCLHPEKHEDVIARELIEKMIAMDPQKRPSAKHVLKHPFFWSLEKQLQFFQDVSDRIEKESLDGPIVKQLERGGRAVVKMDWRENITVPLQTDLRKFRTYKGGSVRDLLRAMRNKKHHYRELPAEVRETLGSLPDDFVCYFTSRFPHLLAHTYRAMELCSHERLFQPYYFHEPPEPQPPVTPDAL

SMILES | IC50 (IRE1a [1]) | EC50 (IRE1a [2]; Homo sapiens, HEK-293T) | EC50 (IRE1a [2])
N[C@H]1CC[C@H](Nc2ncc3cc(-c4ncc(NS(=O)(=O)c5ccccc5Cl)cc4F)ccc3n2)CC1 [Compound 51, N-(6-(2-(((1r,4r)-4-aminocyclohexyl)amino)quinazolin-6-yl)-5-fluoropyridin-3-yl)-2-chlorobenzene-sulfonamide] | ≤ 5 nM | 50 to 100 nM | –
CCc1cc(-c2ccc(NS(=O)(=O)c3ccccc3Cl)nc2OC)cc2cnc(N[C@H]3CC[C@H](NC)CC3)nc12 [Compound 116, 2-chloro-N-(5-(8-ethyl-2-(((1r,4r)-4-(methylamino)cyclohexyl)amino)quinazolin-6-yl)-6-methoxypyridin-2-yl)benzenesulfonamide] | ≤ 5 nM | ≤ 5 nM | –
CCc1c(F)c(-c2cc(F)c(NS(=O)(=O)c3ccccc3Cl)nc2OC)cc2cnc(N[C@H]3CC[C@H](N(C)C)CC3)nc12 [Compound 163, 2-chloro-N-(5-(2-(((1r,4r)-4-(dimethylamino)cyclohexyl)amino)-8-ethyl-7-fluoroquinazolin-6-yl)-3-fluoro-6-methoxypyridin-2-yl)benzenesulfonamide] | ≤ 5 nM | ≤ 5 nM | –
CCc1cc(-c2ccc(NS(=O)(=O)c3ccccc3Cl)nn2)cc2cnc(N[C@H]3CC[C@H](NC)CC3)nc12 [Compound 61, 2-chloro-N-(6-(8-ethyl-2-(((1r,4r)-4-(methylamino)cyclohexyl)amino)quinazolin-6-yl)pyridazin-3-yl)benzene-sulfonamide] | ≤ 5 nM | ≤ 5 nM | –
COc1nc(NS(=O)(=O)c2ccccc2Cl)ccc1-c1cc(F)c2nc(N[C@H]3CC[C@H](N(C)C)CC3)ncc2c1 [Compound 148, 2-chloro-N-(5-(2-(((1r,4r)-4-(dimethylamino)cyclohexyl)amino)-8-fluoroquinazolin-6-yl)-6-methoxypyridin-2-yl)benzenesulfonamide] | ≤ 5 nM | ≤ 5 nM | –
CCc1cc(-c2ncc(NS(=O)(=O)c3ccccc3Cl)nc2OC)cc2cnc(N[C@H]3CC[C@H](N)CC3)nc12 [Compound 98, N-(5-(2-(((1r,4r)-4-aminocyclohexyl)amino)-8-ethylquinazolin-6-yl)-6-methoxypyrazin-2-yl)-2-chlorobenzenesulfonamide] | ≤ 5 nM | ≤ 5 nM | –
Cc1nc(NS(=O)(=O)c2ccccc2Cl)ncc1-c1ccc2nc(N[C@H]3CC[C@H](N)CC3)ncc2c1 [Compound 68, N-(5-(2-(((1r,4r)-4-aminocyclohexyl)amino)quinazolin-6-yl)-4-methylpyrimidin-2-yl)-2-chlorobenzene-sulfonamide] | ≤ 5 nM | 50 to 100 nM | –
CCc1cc(-c2ccc(NS(=O)(=O)c3ccccc3Cl)nc2OC)cc2cnc(N[C@H]3CC[C@H](N(C)C)CC3)nc12 [Compound 99, 2-chloro-N-(5-(2-(((1r,4r)-4-(dimethylamino)cyclohexyl)amino)-8-ethylquinazolin-6-yl)-6-methoxypyridin-2-yl)benzenesulfonamide] | ≤ 5 nM | ≤ 5 nM | –
CCc1cc(-c2cnc(NS(=O)(=O)c3ccccc3Cl)cc2OC)cc2cnc(N[C@H]3CC[C@H](N)CC3)nc12 [Compound 92, N-(5-(2-(((1r,4r)-4-aminocyclohexyl)amino)-8-ethylquinazolin-6-yl)-4-methoxypyridin-2-yl)-2-chlorobenzene-sulfonamide] | ≤ 5 nM | 100 to 10000 nM | –
Cc1nc(NS(=O)(=O)c2ccccc2Cl)ccc1-c1cc(C(C)(F)F)c2nc(N[C@H]3CC[C@H](N(C)C)CC3)ncc2c1 [Compound 131] | ≤ 5 nM | ≤ 5 nM | –
CCc1cc(-c2ccc(NS(=O)(=O)c3ccccc3Cl)c(F)c2)cc2cnc(N[C@@H]3CC[C@@H](N)[C@H](C)C3)nc12 [Compound 74, N-(4-(2-(((1R,3R,4R)-4-amino-3-methylcyclohexyl)amino)-8-ethylquinazolin-6-yl)-2-fluorophenyl)-2-chlorobenzene-sulfonamide] | ≤ 5 nM | ≤ 5 nM | –
CCc1cc(-c2ccc(NS(=O)(=O)c3cccc(C)c3Cl)nc2C)cc2cnc(N[C@H]3CC[C@H](N(C)C)CC3)nc12 [Compound 160, 2-chloro-N-(5-(2-(((1r,4r)-4-(dimethylamino)cyclohexyl)amino)-8-ethylquinazolin-6-yl)-6-methylpyridin-2-yl)-3-methylbenzenesulfonamide] | ≤ 5 nM | ≤ 5 nM | –
NC12CCC(Nc3ncc4cc(-c5ccc(NS(=O)(=O)c6ccccc6Cl)c(F)c5)ccc4n3)(CC1)CC2 [Compound 81, N-(4-(2-((4-aminobicyclo[2.2.2]octan-1-yl)amino)quinazolin-6-yl)-2 fluorophenyl)-2-chlorobenzene-sulfonamide] | ≤ 5 nM | ≤ 5 nM | –
N[C@H]1CCC[C@@H](Nc2ncc3cc(-c4ccc(NS(=O)(=O)c5ccccc5Cl)c(F)c4)ccc3n2)C1 [Compound 75, N-(4-(2-(((1R,3S)-3-aminocyclohexyl)amino)quinazolin-6-yl)-2-fluorophenyl)-2-chlorobenzene-sulfonamide] | ≤ 5 nM | 100 to 10000 nM | –
CCc1cc(-c2ccc(NS(=O)(=O)c3ccccc3Cl)c(F)c2)cc2cnc(N[C@@H]3CCC[C@H](N)C3)nc12 [Compound 72, N-(4-(2-(((1R,3S)-3-aminocyclohexyl)amino)-8-ethylquinazolin-6-yl)-2-fluorophenyl)-2-chlorobenzene-sulfonamide] | ≤ 5 nM | 100 to 10000 nM | –
CCc1cc(-c2ccc(NS(=O)(=O)c3ccccc3C)nc2OC)cc2cnc(N[C@H]3CC[C@H](N(C)C)CC3)nc12 [Compound 119, N-(5-(2-(((1r,4r)-4-(dimethylamino)cyclohexyl)amino)-8-ethylquinazolin-6-yl)-6-methoxypyridin-2-yl)-2-methylbenzenesulfonamide] | ≤ 5 nM | ≤ 5 nM | –
CCc1nc(NS(=O)(=O)c2ccccc2Cl)ccc1-c1cc(CC)c2nc(N[C@H]3CC[C@H](N(C)C)CC3)ncc2c1 [Compound 117, 2-chloro-N-(5-(2-(((1r,4r)-4-(dimethylamino)cyclohexyl)amino)-8-ethylquinazolin-6-yl)-6-ethylpyridin-2-yl)benzenesulfonamide] | ≤ 5 nM | ≤ 5 nM | –
CCc1cc(-c2ccc(NS(=O)(=O)c3cccc(F)c3Cl)nc2C)cc2cnc(N[C@H]3CC[C@H](N(C)C)CC3)nc12 [Compound 158, 2-chloro-N-(5-(2-(((1r,4r)-4-(dimethylamino)cyclohexyl)amino)-8-ethylquinazolin-6-yl)-6-methylpyridin-2-yl)-3-fluorobenzenesulfonamide] | ≤ 5 nM | ≤ 5 nM | –
CCc1cc(-c2cc(OC)c(NS(=O)(=O)c3ccccc3Cl)nn2)cc2cnc(N[C@H]3CC[C@H](N)CC3)nc12 [Compound 66, N-(6-(2-(((1r,4r)-4-aminocyclohexyl)amino)-8-ethylquinazolin-6-yl)-4-methoxypyridazin-3-yl)-2-chlorobenzene-sulfonamide] | ≤ 5 nM | 50 to 100 nM | –
CCc1cc(-c2ccc(NS(=O)(=O)c3ccccc3Cl)c(F)c2)cc2cnc(N[C@@H]3CC[C@H](N)C3)nc12 [Compound 79, N-(4-(2-(((1R,3S)-3-aminocyclopentyl)amino)-8-ethylquinazolin-6-yl)-2-fluorophenyl)-2-chlorobenzene-sulfonamide] | ≤ 5 nM | 5 to 50 nM | –
N[C@H]1CC2C[C@@H](Nc3ncc4cc(-c5ccc(NS(=O)(=O)c6ccccc6Cl)c(F)c5)ccc4n3)CC2C1 (some centres unmarked) [Compound 85, N-(4-(2-(((2s,5s)-5-aminooctahydro-pentalen-2-yl)amino)quinazolin-6-yl)-2-fluorophenyl)-2-chlorobenzene-sulfonamide] | ≤ 5 nM | 100 to 10000 nM | –
N[C@H]1CC[C@H](Nc2cc3ccc(-c4ccc(NS(=O)(=O)c5ccccc5Cl)c(F)c4)cc3cn2)CC1 [Compound 57, N-(4-(3-(((1r,4r)-4-aminocyclohexyl)amino)isoquinolin-7-yl)-2-fluorophenyl)-2-chlorobenzene-sulfonamide] | ≤ 5 nM | ≤ 5 nM | –
CCc1cc(-c2ccc(NS(=O)(=O)c3ccccc3Cl)c(F)c2)cc2cnc(N[C@H]3CC4C[C@H](N)CC4C3)nc12 (some centres unmarked) [Compound 83] | 5 to 50 nM | – | 50 to 100 nM
CCc1cc(-c2ccc(NS(=O)(=O)c3ccccc3Cl)nc2C)cc2cnc(N[C@H]3CC[C@H](N(C)CC4CCC4)CC3)nc12 [Compound 130, 2-chloro-N-(5-(2-(((1r,4r)-4-((cyclobutylmethyl)(methyl)amino)cyclohexyl)amino)-8-ethylquinazolin-6-yl)-6-methylpyridin-2-yl)benzenesulfonamide] | ≤ 5 nM | ≤ 5 nM | –
NC12CCC(Nc3ncc4cc(-c5ccc(NS(=O)(=O)c6ccccc6Cl)c(F)c5)ccc4n3)(CC1)C2 [Compound 86] | ≤ 5 nM | 50 to 100 nM | –
CCc1cc(-c2ccc(NS(=O)(=O)c3ccccc3Cl)nn2)cc2cnc(N[C@H]3CC[C@H](N(C)C)CC3)nc12 [Compound 64] | ≤ 5 nM | ≤ 5 nM | –
CCc1cc(-c2ccc(NS(=O)(=O)c3ccccc3Cl)nc2C)cc2cnc(NC3CCC(N(C)C)C[C@@H]3F)nc12 (stereo in doubt) [Compound 151, 2-chloro-N-(5-(2-(((1R,2S,4R)-4-(dimethylamino)-2-fluorocyclohexyl)amino)-8-ethylquinazolin-6-yl)-6-methylpyridin-2-yl)benzenesulfonamide] | ≤ 5 nM | ≤ 5 nM | –
N[C@@H]1CC[C@@H](Nc2ncc3cc(-c4ccc(NS(=O)(=O)c5ccccc5Cl)c(F)c4)ccc3n2)C1 [Compound 77, N-(4-(2-(((1R,3R)-3-aminocyclopentyl)amino)quinazolin-6-yl)-2-fluorophenyl)-2-chlorobenzene-sulfonamide] | ≤ 5 nM | 5 to 50 nM | –
